According to US7022716B2, “Cyclic amine phenyl beta-3 adrenergic receptor agonists” (Wyeth, priority 2000, dated 2006):

Tests used:
[1] = molecular target: T1, human β3 adrenergic receptor (Homo sapiens, UniProt P13945); test: cAMP (SPA) response in CHO cells transfected with human β3 adrenergic receptor; assay type: cell-based; parameters: key: fraction of maximal isoproterenol (10^-5 M) response; conditions: maximal response relative to maximal response of isoproterenol at 10^-5 M
T1 construct: Full length β3 AR clones (402 amino acids) containing the last 6 amino acids of hβ3-AR are prepared; expressed in transfected cells; host or cells: CHO (Chinese hamster ovary) cells
T1 sequence (P13945 whole entry): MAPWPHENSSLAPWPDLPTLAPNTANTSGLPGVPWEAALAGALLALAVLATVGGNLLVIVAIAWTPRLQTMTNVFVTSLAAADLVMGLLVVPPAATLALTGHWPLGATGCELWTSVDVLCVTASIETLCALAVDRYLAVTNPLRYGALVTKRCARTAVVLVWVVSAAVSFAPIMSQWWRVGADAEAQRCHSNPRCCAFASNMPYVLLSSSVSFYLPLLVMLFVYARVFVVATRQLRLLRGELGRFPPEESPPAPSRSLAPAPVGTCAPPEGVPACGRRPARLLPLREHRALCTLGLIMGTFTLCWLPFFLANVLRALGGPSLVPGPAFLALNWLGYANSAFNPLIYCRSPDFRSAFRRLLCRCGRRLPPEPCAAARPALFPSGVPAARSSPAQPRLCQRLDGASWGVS
Method in brief: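 Reactions were stopped with 0.2N HCl and neutralised, and cAMP was measured by SPA. Activity is expressed as percent of the maximal 10^−5 M isoproterenol response.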

| IA(β3) [1] | melting point | SMILES |
| --- | --- | --- |
| 1.2 | > 140 °C (dec.) | O=C1CCc2c(OC[C@@H](O)CNC3CCN(c4ccc(CC5SC(=O)NC5=O)cc4)CC3)ccc(O)c2N1 (stereo partly drawn) [Example 91, 5-(4-{4-[(2S)-2-Hydroxy-3-(8-hydroxy-2-oxo-1,2,3,4-tetrahydro-quinolin-5-yloxy)-propylamino]-piperidin-1-yl}-benzyl)-thiazolidine-2,4-dione] |
| 1.1 | > 70 °C (dec.) | CS(=O)(=O)Nc1cc(OC[C@@H](O)CNC2CCN(c3ccc(CC4SC(=O)NC4=O)cc3)CC2)ccc1O (stereo partly drawn) [Example 92, N-[5-((2S)-3-{1-[4-(2,4-Dioxo-thiazolidin-5-ylmethyl)-phenyl]-piperidin-4-ylamino}-2-hydroxy-propoxy)-2-hydroxy-phenyl]-methanesulfonamide] |
| 1 | > 120 °C (dec.) | O=C1NC(=O)C(Cc2ccc(N3CCC(NC[C@H](O)COc4ccc(O)c(NS(=O)(=O)c5ccccc5)c4)CC3)cc2)S1 (stereo partly drawn) [Example 93, N-[5-((2S)-3-{1-[4-(2,4-Dioxo-thiazolidin-5-ylmethyl)-phenyl]-piperidin-4-ylamino}-2-hydroxy-propoxy)-2-hydroxy-phenyl]-benzenesulfonamide] |
| 0.59 | > 105 °C (dec.) | CS(=O)(=O)Nc1cc([C@@H](O)CNC2CCN(c3ccc(CC4SC(=O)NC4=O)cc3)CC2)ccc1Cl (stereo partly drawn) [Example 95, N-[2-Chloro-5-((1R)-2-{1-[4-(2,4-dioxo-thiazolidin-5-ylmethyl)-phenyl]-piperidin-4-ylamino}-1-hydroxy-ethyl)-phenyl]-methanesulfonamide] |
| 0.93 | > 150 °C (dec.) | O=C1NC(=O)C(Cc2ccc(N3CCC(NC[C@H](O)c4ccc(O)c(NS(=O)(=O)c5ccccc5)c4)CC3)cc2)S1 (stereo partly drawn) [Example 96, N-(5-{(1R)-2-[(1-{4-[(2,4-Dioxo-1,3-thiazolidin-5-yl)methyl]phenyl}piperidin-4-yl)amino]-1-hydroxyethyl}-2-hydroxyphenyl)benzenesulfonamide] |
| 0.9 | > 175 °C (dec.) | CS(=O)(=O)Nc1cc(C(O)CNC2CCN(c3ccc(-c4nnn[nH]4)cc3)CC2)ccc1O (stereo not drawn) [Example 97, N-[2-Hydroxy-5-(1-hydroxy-2-{1-[4-(1H-tetrazol-5-yl)-phenyl]-piperidin-4-ylamino}-ethyl)-phenyl]-methanesulfonamide] |
| 1 | > 140 °C (dec.) | CCOC(=O)Cn1nnnc1-c1ccc(N2CCC(NC[C@H](O)c3ccc(O)c(NS(C)(=O)=O)c3)CC2)cc1 [Example 98] |
| 0.97 | > 210 °C (dec.) | CS(=O)(=O)Nc1cc([C@@H](O)CNC2CCN(c3ccc(-c4nnnn4CC(=O)O)cc3)CC2)ccc1O [Example 99, [5-(4-{4-[((2R)-2-Hydroxy-2-{4-hydroxy-3-[(methylsulfonyl)amino]phenyl}ethyl)amino]-1-piperidinyl}phenyl)-1H-tetraazol-1-yl]acetic acid] |
| 0.9 | > 240 °C (dec.) | CS(=O)(=O)Nc1cc([C@@H](O)CNC2CCN(c3ccc(-c4nnn(CC(=O)O)n4)cc3)CC2)ccc1O [Example 100, [5-(4-{4-[((2R)-2-Hydroxy-2-{4-hydroxy-3-[(methylsulfonyl)amino]phenyl}ethyl)amino]-1-piperidinyl}phenyl)-2H-tetraazol-2-yl]acetic acid] |
| 0.36 | 130 to 132 °C | O=C1NC(=O)C(Cc2ccc(N3CCC(NC[C@H](O)COc4cccnc4)CC3)cc2)S1 (stereo partly drawn) [Example 125, 5-(4-{4-[(2S)-2-Hydroxy-3-(pyridin-3-yloxy)-propylamino]-piperidin-1-yl}-benzyl)-thiazolidine-2,4-dione] |
| 0.52 | > 88 °C (dec.) | O=C1NC(=O)C(Cc2ccc(N3CCC(NC[C@@H](O)c4cccnc4)CC3)cc2)S1 (stereo partly drawn) [Example 131, 5-{4-[4-((2S)-2-Hydroxy-2-pyridin-3-yl-ethylamino)-piperidin-1-yl]-benzyl}-thiazolidine-2,4-dione] |
| 0.9 | 87 °C (dec.) | O=C1NC(=O)C(Cc2ccc(N3CCC(NC[C@H](O)c4cccnc4)CC3)cc2)S1 (stereo partly drawn) [Example 136, 5-{4-[4-((2R)-2-Hydroxy-2-pyridin-3-yl-ethylamino)-piperidin-1-yl]-benzyl}-thiazolidine-2,4-dione] |
| 0.91 | 225 to 227 °C | CS(=O)(=O)Nc1cc([C@@H](O)CNC2CCN(c3ccc(-c4cc(=O)[nH][nH]4)cc3)CC2)ccc1O [Example 146, N-[(2R)-2-Hydroxy-5-(1-hydroxy-2-{1-[4-(5-oxo-2,5-dihydro-1H-pyrazol-3-yl)-phenyl]-piperidin-4-ylamino}-ethyl)-phenyl]-methanesulfonamide] |
| 0.85 | > 170 °C (dec.) | CCOC(=O)c1ccc(N2CCC(NC[C@H](O)COc3cccc4[nH]c(=O)[nH]c34)CC2)cc1 [Example 179] |
| 0.86 | > 140 °C (dec.) | CS(=O)(=O)Nc1cc([C@@H](O)CNC2CCN(c3ccc(CC(=O)O)cc3)CC2)ccc1O [Example 182, (4-{4-[(2R)-2-Hydroxy-2-(4-hydroxy-3-methanesulfonylamino-phenyl)-ethylamino]-piperidin-1-yl}-phenyl)-acetic acid] |
| 0.84 | 103 to 106 °C | CCOC(=O)/C=C/c1ccc(N2CCC(NC[C@H](O)c3ccc(O)c(NS(C)(=O)=O)c3)CC2)cc1 [Example 183, (E)-3-(4-{4-[(2R)-2-Hydroxy-2-(4-hydroxy-3-methanesulfonylamino-phenyl)-ethylamino]-piperidin-1-yl}-phenyl)-acrylic acid ethyl ester] |
| 1.1 | 130 to 133 °C | CS(=O)(=O)Nc1cc([C@@H](O)CNC2CCN(c3ccc(CCC(=O)O)cc3)CC2)ccc1O [Example 184, 3-(4-{4-[(R)-2-Hydroxy-2-(4-hydroxy-3-methanesulfonylamino-phenyl)-ethylamino]-piperidin-1-yl}-phenyl)-propionic acid] |
| 0.69 | > 145 °C (dec.) | CS(=O)(=O)Nc1cc([C@@H](O)CNC2CCN(c3ccc(COCC(=O)O)cc3)CC2)ccc1O [Example 185, (4-{4-[(2R)-2-Hydroxy-2-(4-hydroxy-3-methanesulfonylamino-phenyl)-ethylamino]-piperidin-1-yl}-benzyloxy)-acetic acid] |
| 1.03 | 76 to 78 °C | CCOC(=O)CCc1ccc(N2CCC(NC[C@H](O)c3ccc(O)c(NS(C)(=O)=O)c3)CC2)cc1 [Example 187, 3-(4-{4-[(2R)-2-Hydroxy-2-(4-hydroxy-3-methanesulfonylamino-phenyl)-ethylamino]-piperidin-1-yl}-phenyl)-propionic acid ethyl ester] |
| 0.91 | > 80 °C (dec.) | CCOC(=O)C(=Cc1ccc(N2CCC(NCC(O)c3ccc(O)c(NS(C)(=O)=O)c3)CC2)cc1)C(=O)OCC (stereo not drawn) [Example 188, 2-(4-{4-[2-Hydroxy-2-(4-hydroxy-3-methanesulfonylamino-phenyl)-ethylamino]-piperidin-1-yl}-benzylidene)-malonic acid diethyl ester] |
| 1.12 | > 75 °C (dec.) | CS(=O)(=O)Nc1cc([C@@H](O)CNC2CCN(c3ccc(C(N)=O)cc3)CC2)ccc1O [Example 190, 4-{4-[(2R)-2-Hydroxy-2-(4-hydroxy-3-methanesulfonylamino-phenyl)-ethylamino]-piperidin-1-yl}-benzamide] |
| 1 | > 70 °C (dec.) | CS(=O)(=O)Nc1cc([C@@H](O)CNC2CCN(c3ccc(C(=O)NOCc4ccccc4)cc3)CC2)ccc1O [Example 191, N-Benzyloxy-4-{4-[(2R)-2-hydroxy-2-(4-hydroxy-3-methanesulfonylamino-phenyl)-ethylamino]-piperidin-1-yl}-benzamide] |
| 0.97 | > 75 °C (dec.) | CCOC(=O)CC[C@H](NC(=O)c1ccc(N2CCC(NC[C@H](O)c3ccc(O)c(NS(C)(=O)=O)c3)CC2)cc1)C(=O)OCC [Example 192, Diethyl(2S)-2-[(4-{4-[((2R)-2-hydroxy-2-{4-hydroxy-3-[(methylsulfonyl)amino]phenyl}ethyl)amino]-1-piperidinyl}benzoyl)amino]pentanedioate] |
| 0.9 | > 95 °C (dec.) | CCOC(=O)CCNC(=O)c1ccc(N2CCC(NC[C@H](O)c3ccc(O)c(NS(C)(=O)=O)c3)CC2)cc1 [Example 193, Ethyl3-[(4-{4-[((2R)-2-hydroxy-2-{4-hydroxy-3-[(methylsulfonyl)amino]phenyl}-ethyl)amino]-1-piperidinyl}benzoyl)amino]propanoate.] |
| 0.88 | > 230 °C (dec.) | CS(=O)(=O)Nc1cc([C@@H](O)CNC2CCN(c3ccc(C(=O)N[C@@H](CCC(=O)O)C(=O)O)cc3)CC2)ccc1O [Example 194, (2S)-2-[(4-{4-[((2R)-2-Hydroxy-2-{4-hydroxy-3-[(methylsulfonyl)amino]phenyl}-ethyl)amino]-1-piperidinyl}benzoyl)amino]pentanedioic acid] |
| 0.98 | > 170 °C (dec.) | CS(=O)(=O)Nc1cc([C@@H](O)CNC2CCN(c3ccc(C(=O)NCCC(=O)O)cc3)CC2)ccc1O [Example 195, N-(4-{4-[((2R)-2-Hydroxy-2-{4-hydroxy-3-[(methylsulfonyl)amino]phenyl}ethyl)amino]-1-piperidinyl}benzoyl)-bete-alanine] |
| 1.1 | > 140 °C (dec.) | CCOC(=O)CNC(=O)c1ccc(N2CCC(NC[C@H](O)c3ccc(O)c(NS(C)(=O)=O)c3)CC2)cc1 [Example 196, Ethyl[(4-{4-[((2R)-2-hydroxy-2-{4-hydroxy-3-[(methylsulfonyl)amino]phenyl}ethyl)amino]-1-piperidinyl}benzoyl)amino]acetate] |
